In patent US8748485B2, “Compound and medical use thereof” (Ono Pharmaceuticals Co., Ltd., priority 2010, dated 2014):

Columns and labels:
[1] = Kinetic study in dogs (oral administration, plasma levodopa); conditions: dog, in vivo, po, 3 mg/kg; for Cmax/C6 hr (ratio of maximum plasma concentration and plasma concentration at 6 hours after oral administration, levodopa): male, beagle
Source text: The relationship between the blood concentration of levodopa and side effects in patients who take levodopa has been gradually elucidated. […] In order to reduce the number of doses of levodopa and avoid side effects such as dyskinesia and wearing-off in patients who take levodopa, it is necessary to maintain the blood concentration of levodopa within a therapeutic range as long as possible.
These levodopa prodrugs are prodrugs containing an ester bond, and therefore, it is considered that among a number of enzymes, carboxyesterase plays the most important role in the process of producing levodopa by metabolizing the compound after the compound is administered in vivo. Therefore, as an animal species to be used for performing a kinetic study, dogs in which the organ distribution of carboxyesterase is most similar to that of humans were selected as subjects for evaluation.
The thus obtained drug solution was administered by gavage through a gastric tube into the stomach of dogs (male beagle dogs) which were fasted from the day before the administration. At 15 and 30 minutes, and 1, 2, 4, 6, and 8 hours after administration of the drug solution, 1 mL of blood was collected from a cephalic vein with a heparinized syringe. Immediately after the collection, the collected blood was centrifuged in a desktop centrifuge at 14500 rpm for 45 seconds. Then, acetonitrile containing 0.1125% formic acid was added to the thus obtained plasma in an amount as twice as large as the volume of the plasma, followed by stirring, and then, the resulting sample was stored at −20° C. until measurement.
The sample was thawed on the measurement day, followed by stirring and centrifugation at 13000 rpm for 3 minutes (at 4° C.). The resulting supernatant was filtered and the filtrate was analyzed by LC/MS/MS. The analysis was performed by LC/MS/MS under the following conditions.
Measurement Apparatus: API-5000 (manufactured by Applied Biosystems, Inc.)
Analytical column: CAPCELL PAK CR (1:4) (4.6 mm, I.D.×250 mm, 5 μm)
Analytical column temperature: 40° C.
Mobile phase: A: 5 mM ammonium formate (pH 3.9), B: acetonitrile (A/B=17/3)
Detection (levodopa): m/z (precursor): 196.19, m/z (product): 134.99
DP (Declustering Potential): −60
CE (Collision Energy): −25
CXP (Collision Cell Exit Potential): −17
Incidentally, the numerical value in the column which indicates the dose expressed in terms of levodopa refers to a dose equivalent to that of levodopa.

p53R2 = experiment: Mutagenicity assay using mammalian cells (NESMAGET method); format: cell-based
Description: In the treatment of Parkinson's disease and/or Parkinson's syndrome, there is a possibility that a levodopa prodrug is continued to be taken over a long period of time of several years to several decades. Therefore, an evaluation was carried out as to whether or not the compound of the present invention has mutagenicity by a mutagenicity assay using mammalian cells.
A mutagenicity assay using mammalian cells was carried out as a commissioning test to be undertaken by Nissin Foods Holdings Co., Ltd. The present method also called NESMAGET method is a method in which the expression of p53R2 which is a DNA repair gene is detected by luciferase activity, and the specific experimental technique is described in JP-A-2005-000024 and Japanese Patent No. 4243716. In the determination as to whether or not the result of this test was positive, the luciferase activity of p53R2 in the case of a vehicle control (0.3% dimethylsulfoxide) was taken as 100%, and a concentration at which a relative luciferase activity exceeded 200% was determined to be “concentration at which mutagenicity was determined to be positive”.

AUC (area under the blood concentration-time curve of levodopa) [1] [μg^+ hr/mL]	Cmax/C6 hr (ratio of maximum plasma concentration and plasma concentration at 6 hours after oral administration, levodopa) [1]	SMILES	Mutagenicity assay (NESMAGET) Concentration at which mutagenicity was determined to be positive (p53R2; concentration at which relative luciferase activity of p53R2 exceeded 200% (vehicle control 0.3% dimethylsulfoxide = 100%)) [µg/mL]	determination of mutagenicity (p53R2; positive = relative luciferase activity of p53R2 exceeded 200%, compound of the present invention up to 200 μg/mL)
0.28	6.6	CC(C)C(CC(=O)Oc1ccc(C[C@H](N)C(=O)O)cc1OC(=O)CC(C(C)C)C(C)C)C(C)C.Cl [Reference Example 22, (2S)-2-Amino-3-(3,4-bis((3-isopropyl-4-methylpentanoyl)oxy)phenyl)propanoic acid hydrochloride]	–	–
0.45	18.0	Cl.N[C@@H](Cc1ccc(OC(=O)C2CC2)c(OC(=O)C2CC2)c1)C(=O)O [Reference Example 26, (2S)-2-Amino-3-(3,4-bis((cyclopropanecarbonyl)oxy)phenyl)propanoic acid hydrochloride]	–	–
0.70	221.2	CC(C)(C)CCC(=O)Oc1ccc(C[C@H](N)C(=O)O)cc1OC(=O)CCC(C)(C)C.Cl [Reference Example 19, (2S)-2-Amino-3-(3,4-bis((4,4-dimethylpentanoyl)oxy)phenyl)propanoic acid hydrochloride]	–	–
0.10	16.1	C[C@H](OC(=O)c1ccccc1)C(=O)Oc1ccc(C[C@H](N)C(=O)O)cc1OC(=O)[C@H](C)OC(=O)c1ccccc1.Cl [Reference Example 34, (2S)-2-Amino-3-(3,4-bis(((S)-2-(benzoyloxy)propanoyl)oxy)phenyl)propanoic acid hydrochloride]	–	–
0.66	14.7	CC(C)(COC(=O)c1cccs1)C(=O)Oc1ccc(C[C@H](N)C(=O)O)cc1OC(=O)C(C)(C)COC(=O)c1cccs1.Cl [Reference Example 6, (2S)-2-Amino-3-(3,4-bis((2,2-dimethyl-3-((thiophene-2-carbonyl)oxy)propanoyl)oxy)phenyl)propanoic acid hydrochloride]	2.4	positive for mutagenicity
0.27	8.8	CCC(C)(CC)CC(=O)Oc1ccc(C[C@H](N)C(=O)O)cc1OC(=O)CC(C)(CC)CC.Cl [Reference Example 21, (2S)-2-Amino-3-(3,4-bis((3-ethyl-3-methylpentanoyl)oxy)phenyl)propanoic acid hydrochloride]	–	–
0.59	41.5	Cc1ccccc1C(=O)Oc1ccc(C[C@H](N)C(=O)O)cc1OC(=O)c1ccccc1C.Cl [Reference Example 23, (2S)-2-Amino-3-(3,4-bis((2-methylbenzoyl)oxy)phenyl)propanoic acid hydrochloride]	–	–
0.84	58.7	CC1(C(=O)Oc2ccc(C[C@H](N)C(=O)O)cc2OC(=O)C2(C)CC2)CC1.Cl [Reference Example 27, (2S)-2-Amino-3-(3,4-bis((1-methylcyclopropanecarbonyl)oxy)phenyl)propanoic acid hydrochloride]	–	–
0.12	2.9	CCC(C)(CC)C(=O)Oc1ccc(C[C@H](N)C(=O)O)cc1OC(=O)C(C)(CC)CC.Cl [Reference Example 18, (2S)-2-Amino-3-(3,4-bis((2-ethyl-2-methylbutanoyl)oxy)phenyl)propanoic acid hydrochloride]	–	–
0.003	2.0	CCC(CC)(OC(=O)c1ccccc1)C(=O)Oc1ccc(C[C@H](N)C(=O)O)cc1OC(=O)C(CC)(CC)OC(=O)c1ccccc1.Cl [Reference Example 33, (2S)-2-Amino-3-(3,4-bis((2-(benzoyloxy)-2-ethylbutanoyl)oxy)phenyl)propanoic acid hydrochloride]	–	–
0.42	12.6	COC(=O)[C@@H](N)Cc1ccc(OC(=O)CC(C)(C)C)c(OC(=O)CC(C)(C)C)c1 [Compound X, 3,3-dimethyl-butyric acid 4-((S)-2-amino-2-methoxycarbonyl-ethyl)-2-(3,3-dimethyl-butyryloxy)phenyl ester]	–	–
0.31	24.2	N[C@@H](Cc1ccc(OC(=O)c2ccccc2C(F)(F)F)c(OC(=O)c2ccccc2C(F)(F)F)c1)C(=O)O [Reference Example 25, (2S)-2-Amino-3-(3,4-bis((2-(trifluoromethyl)benzoyl)oxy)phenyl)propanoic acid]	–	–
0.77	1039.6	C[C@@H](OC(=O)c1ccccc1)C(=O)Oc1ccc(C[C@H](N)C(=O)O)cc1OC(=O)[C@@H](C)OC(=O)c1ccccc1.Cl [Reference Example 35, (2S)-2-Amino-3-(3,4-bis(((R)-2-(benzoyloxy)propanoyl)oxy)phenyl)propanoic acid hydrochloride]	–	–

SMILES	AUC (area under the blood concentration-time curve of levodopa) [1] [μg^+ hr/mL]	Cmax/C6 hr (ratio of maximum plasma concentration and plasma concentration at 6 hours after oral administration, levodopa) [1]	Mutagenicity assay (NESMAGET) Concentration at which mutagenicity was determined to be positive (p53R2; concentration at which relative luciferase activity of p53R2 exceeded 200% (vehicle control 0.3% dimethylsulfoxide = 100%)) [µg/mL]	determination of mutagenicity (p53R2; positive = relative luciferase activity of p53R2 exceeded 200%, compound of the present invention up to 200 μg/mL)
Cl.N[C@@H](Cc1ccc(OC(=O)CC2CCCC2)c(OC(=O)CC2CCCC2)c1)C(=O)O [Reference Example 28, (2S)-2-Amino-3-(3,4-bis(2-cyclopentylacetoxy)phenyl)propanoic acid hydrochloride]	0.68	304.4	–	–
CC1(CC(=O)Oc2ccc(C[C@H](N)C(=O)O)cc2OC(=O)CC2(C)CCCC2)CCCC1.Cl [Reference Example 31, (2S)-2-Amino-3-(3,4-bis(2-(1-methylcyclopentyl)acetoxy)phenyl)propanoic acid hydrochloride]	0.42	18.7	–	–
CC(=O)OC(C)(C)C(=O)Oc1ccc(C[C@H](N)C(=O)O)cc1OC(=O)C(C)(C)OC(C)=O.Cl [Reference Example 32, (2S)-2-Amino-3-(3,4-bis((2-acetoxy-2-methylpropanoyl)oxy)phenyl)propanoic acid hydrochloride]	0.53	40.7	–	–
Cl.N[C@@H](Cc1ccc(OC(=O)CC2CCCCC2)c(OC(=O)CC2CCCCC2)c1)C(=O)O [Reference Example 29, (2S)-2-Amino-3-(3,4-bis(2-cyclohexylacetoxy)phenyl)propanoic acid hydrochloride]	0.59	98.5	–	–
CC1(CC(=O)Oc2ccc(C[C@H](N)C(=O)O)cc2OC(=O)CC2(C)CCCCC2)CCCCC1.Cl [Reference Example 30, (2S)-2-Amino-3-(3,4-bis(2-(1-methylcyclohexyl)acetoxy)phenyl)propanoic acid hydrochloride]	0.36	12.8	–	–
